Measured values published in patent US8343979B2, “Use of alkanoyl L-carnitine for the treatment of erectile dysfunction” (Sigma-Tau Industrie Farmaceutiche Riunite S.p.A., priority 2001, dated 2013).

Key:
[1] = system: erectile dysfunction, diabetics or nondiabetics patients; experiment: preliminary experimental data on propionyl L-carnitine in erectile dysfunction; type: in vivo, human; settings: not previously treated with sildenafil
[2] = system: diabetics patients suffering from E.D.; experiment: clinical trial of propionyl L-carnitine plus sildenafil in sildenafil non-responders (dynamic colour Doppler ultrasonography, IIEF); type: in vivo, human; settings: 2 g/day propionyl L-carnitine orally daily in combination with 50 mg sildenafil orally twice a week; diabetic E.D. patients not responder to sildenafil alone; after 3 and 6 months
Protocol: In this trial, 24 diabetics patients suffering from E.D. which were not responder to the treatment with sildenafil alone were enrolled.
2 g/day (1 g tablet twice a day) of propionyl L-carnitine were orally administered daily to the patients, and 50 mg sildenafil orally, twice a week.
In this trial, 30 diabetics patients suffering from E.D. which were not responder to the treatment with sildenafil alone were enrolled.
2 g/day (1 g tablet twice a day) of propionyl L-carnitine, were orally administered daily to the patients, and 50 mg sildenafil orally, twice a week.

Question: CCC(=O)O[C@H](CC(=O)[O-])C[N+](C)(C)C [propionyl L-carnitine] was tested. Which “usefulness for treating the erectile dysfunction” value [1] did it give?
Answer: The value was “useful for treating the erectile dysfunction”.

Question: And the “arterial flux by dynamic colour Doppler ultrasonography” value [2]?
Answer: The value was “improvement of the arterial flux”.

Question: And the “satisfactory clinical response evaluated with IIEF, share of treated patients” value [2]?
Answer: Its value is 60%.
